These results are taken from patent US10702487B2, “Pharmaceutical composition for prevention of diet induced obesity” (FRIMLINE PRIVATE LIMITED, priority 2017, dated 2020).

Assay type in all cases: in vivo, Male Wistar Rats
Test [1] concerns High fat diet induced obesity model in rat. The test is described as follows: High fat diet induced obesity model in rat: body weight. The settings on record: HFD-fed rats, end of 12 weeks, p.o., mean; for % increase in body weight: in comparison to normal control group; for Body weight: OEA 41, L-Valine 2, Pantethine 31, Orlistat 10 mg/kg. The protocol:
(§1) Screening anti-obesity effect of synergistic combination or composition/formulation comprising OEA and other natural ingredients using High fat diet induced obesity model in rat. […] To maintain appropriate conditions, temperature and relative humidity were recorded three times daily. During complete experiment, animals were supplied with the standard certified rat pellet feed (manufactured by VRK Nutritional Solutions, Pune) and drinking water treated by the reverse osmosis ad libitum. […] In order to evaluate the anti-obesity effect, forty-eight (48) male rats were screened and divided into eight groups. For a comparative analysis, the groups were divided as follows: normal control, disease control, treatment groups with individual component, reference standard drug and test composition/formulation of the present invention. […] The animals under consideration were examined for a study period of 12 weeks. Animals in group (G1) were given normal pellet diet, wherein the other groups were on high fat diet. After completion of study for 12 weeks, each group was analyzed in terms of the body weight and other evaluating parameters such as serum biochemistry (triglyceride, total cholesterol and low density lipoprotein cholesterol (LDL), analysis of liver homogenates and histopathology of liver. Obesity is essentially due to an excessive accumulation of the fatty tissues which leads to many diseases, not limited to insulin resistance, diabetes, fatty liver disease, coronary artery disease, hypertension and polycystic ovary syndrome. In obese conditions, the level of total cholesterol, triglyceride and LDL-cholesterol reaches beyond the normal ranges in human beings. Similarly, high fat diet model in rat is universally accepted model to test the efficacy of the drug for the treatment of obesity. In the above experimental procedure, obesity was induced by administration of a high fat diet (HFD) for the period of 12 weeks. For comparison, the normal control group animals were given a normal pellet diet, whereas the remaining groups were fed with the HFD. As a routine experiment, all animals' body weights were observed on weekly basis. Further, various serum biochemistry parameters such as Triglyceride, total cholesterol and LDL-cholesterol were analyzed at the end of the 12-week treatment period. In this regard, at the end of study period, all animals were euthanized and the liver was isolated. The liver homogenate of each individual animal was prepared and subjected for determination of the level of total cholesterol and Triglyceride. Further, part of the liver was used for histopathological investigation purpose. The primary observation during the experiment was monitoring the body weight of animals. Though the animals were tested weekly for the change in the body weight, an average body weight was measured at the end of 12 weeks, and is tabulated in the Table 2.

Test [2] has the same test system. Kind of test: High fat diet induced obesity model in rat: analysis of liver homogenates. As to conditions: liver homogenate, HFD-fed rats, 12 weeks, p.o.; for Total Cholesterol / Triglyceride: mean; for Total Cholesterol % Decrease / Triglyceride % Decrease: versus disease control. The procedure:
as §1, with “purpose.” for “purpose. The primary observation during the experiment was monitoring the body weight of animals. Though the animals were tested weekly for the change in the body weight, an average body weight was measured at the end of 12 weeks, and is tabulated in the Table 2.”

Test [3] shares this test system. Kind of test: High fat diet induced obesity model in rat: serum biochemistry. As to conditions: HFD-fed rats, 12 weeks, p.o.; for LDL / Total Cholesterol / Triglyceride: mean; for LDL % Decrease / Total Cholesterol % Decrease / Triglyceride % Decrease: versus disease control. The protocol: as §1, with “purpose.” for “purpose. The primary observation during the experiment was monitoring the body weight of animals. Though the animals were tested weekly for the change in the body weight, an average body weight was measured at the end of 12 weeks, and is tabulated in the Table 2.”

On to `CCCCCCCCCCC[C@@H](C[C@@H]1OC(=O)[C@H]1CCCCCC)OC(=O)[C@H](CC(C)C)NC=O` [Orlistat], for which, in test [1], the “% increase in body weight” value worked out at 7.97% and the Body weight is 298.00 gm. In test [2], the “Total Cholesterol” value was 60.33 mg/dL, the Triglyceride amounted to 44.82 mg/dL, the “Total Cholesterol % Decrease” value is listed as 33.15% and the “Triglyceride % Decrease” value turned out to be 46.00%. For the same compound, in test [3], the LDL came to 25.74 mg/dL, the “Total Cholesterol” value came to 84.27 mg/dL, the Triglyceride amounted to 77.62 mg/dL and the “LDL % Decrease” value was 55.60%. In test [3], the “Total Cholesterol % Decrease” value is on record as 42.77% and the “Triglyceride % Decrease” value is 36.78%.
Consider `CC(C)[C@H](N)C(=O)O` [L-Valine], for which, in test [1], the “% increase in body weight” value is recorded as 22.71% and the Body weight was 338.67 gm. In test [2], the “Total Cholesterol” value was found to be 85.23 mg/dL, the Triglyceride turned out to be 80.02 mg/dL, the “Total Cholesterol % Decrease” value is 5.56% and the “Triglyceride % Decrease” value was 3.59%. Moreover, in test [3], the LDL worked out at 55.45 mg/dL, the “Total Cholesterol” value stood at 140.00 mg/dL, the Triglyceride was 115.23 mg/dL and the “LDL % Decrease” value was found to be 4.35%. In test [3], the “Total Cholesterol % Decrease” value is 4.92% and the “Triglyceride % Decrease” value worked out at 6.15%.
`CCCCCCCC/C=C\CCCCCCCC(=O)NCCO` [OEA, Oleoylethanolamide]: in test [1], the “% increase in body weight” value is 12.32% and the Body weight stood at 310.00 gm. Also, in test [2], the “Total Cholesterol” value stood at 74.12 mg/dL, the Triglyceride stood at 59.98 mg/dL, the “Total Cholesterol % Decrease” value is recorded as 17.87% and the “Triglyceride % Decrease” value is listed as 27.74%. For the same compound, in test [3], the LDL turned out to be 35.54 mg/dL, the “Total Cholesterol” value was 105.54 mg/dL, the Triglyceride worked out at 100.05 mg/dL and the “LDL % Decrease” value was 38.70%. Also, in test [3], the “Total Cholesterol % Decrease” value was found to be 28.32% and the “Triglyceride % Decrease” value is reported as 18.51%.
